Measurements taken from US4160839A, “Carbamyltriazole insecticides” (priority 1976, dated 1979).

What was measured:
[1] = tested on: Mexican bean beetle (MBB) larvae; test: Spray test, Mexican bean beetle (MBB) larvae on bean leaves; type: in vivo; conditions: approx. 48 h after spraying
Experimental: (§1) Three 5 oz paper cups containing Henderson dwarf lima bean plants and one 5 oz paper cup containing Orange Gem nasturtiums, all growing in vermiculite, are placed on a turntable and sprayed to thorough wetness with 25 ml of a solution of the candidate chemical at the appropriate concentration. Nasturtiums were already infested with 50-100 bean aphids (BA). A bean plant in one paper cup was already infested with 50-100 two-spotted mites (TSM). Leaves from the two remaining bean plants are removed following spraying and placed in disposable petri dishes with 5 southern armyworm (SA) larvae in one petri dish, and 5 Mexican bean beetle (MBB) larvae in the other petri dish. The rating is done approximately 48 hours after spraying as follows:
(§2) So as to obtain more meaningful results, all tests are performed at the same time of day, whenever possible, usually in the forenoon. Temperature,illumination and humidity are the same in all tests. Atmospheric pressure is not controlled.
(§3) Results obtained with the novel insecticides of this invention at various concentrations of active chemical are tabulated below. The ratings given are for averages of three or more replicates. The oral lethal dose for 50 percent kill of laboratory rats is also recorded in the table. In conducting the toxicity tests on rats, 0.01 g of active chemical per ml in corn oil is employed as an additive to the diet of the animals.

[2] = tested on: southern armyworm (SA) larvae; test: Spray test, southern armyworm (SA) larvae on bean leaves; type: in vivo; conditions: approx. 48 h after spraying
Experimental: as §1, §2, §3

bean aphids (BA) = test: Spray test, bean aphids (BA) on nasturtiums; type: in vivo; conditions: approx. 48 h after spraying
Experimental: as §1, §2, §3

two-spotted mites (TSM) = test: Spray test, two-spotted mites (TSM) on bean plants; type: in vivo; conditions: approx. 48 h after spraying
Experimental: as §1, §2, §3

[3] = tested on: Southern Corn Rootworm (SCR); test: Southern Corn Rootworm (SCR) soil treatment test, root feeding damage on corn; type: in vivo; design: scale not given here; conditions: nine days after treatment
Experimental: Three 5 oz paper cups planted each with one kernel of DeKalb XL-361 corn are treated two days after planting with 10 ml of a 125 ppm solution of the candidate compound. Compounds with high efficacy are treated at lower concentrations. The experiment is a 4×5 factorial in a randomized complete block design with three replications. The tests are evaluated nine days after treatment. The roots are inspected under a dissecting microscope and rated as follows:
as §2, §3

[4] = Oral toxicity test on laboratory rats; conditions: rat, in vivo, in corn oil as additive to the diet, read-out: LD50 (oral lethal dose for 50 percent kill of laboratory rats)
Experimental: as §3

| Structure (SMILES) | MBB rating (larvae dead) ([1]; 15 ppm) | MBB rating (larvae dead) ([1]; 31 ppm) | MBB rating (larvae dead) ([1]; 62 ppm) | MBB rating (larvae dead) ([1]; 125 ppm) | MBB rating (larvae dead) ([1]; 250 ppm) | MBB rating (larvae dead) ([1]; 500 ppm) | SA rating (larvae dead) ([2]; 15 ppm) | SA rating (larvae dead) ([2]; 31 ppm) | SA rating (larvae dead) ([2]; 62 ppm) | SA rating (larvae dead) ([2]; 500 ppm) | BA rating (dead) (bean aphids (BA); 15 ppm) | BA rating (dead) (bean aphids (BA); 31 ppm) | BA rating (dead) (bean aphids (BA); 62 ppm) | BA rating (dead) (bean aphids (BA); 125 ppm) | BA rating (dead) (bean aphids (BA); 250 ppm) | BA rating (dead) (bean aphids (BA); 500 ppm) | TSM rating (dead adults) (two-spotted mites (TSM); 500 ppm) | BA rating (dead) (bean aphids (BA); 2 ppm) | BA rating (dead) (bean aphids (BA); 4 ppm) | BA rating (dead) (bean aphids (BA); 8 ppm) | other results |
| --- | --- | --- | --- | --- | --- | --- | --- | --- | --- | --- | --- | --- | --- | --- | --- | --- | --- | --- | --- | --- | --- |
| C=CC(C)Sc1nc(C(C)(C)C)nn1C(=O)N(C)C (centres unmarked) [R=1-methylallyl, R'=tert.butyl] | 0 (no larvae dead) | 0 (no larvae dead) | 0 (no larvae dead) | 1 (1 -25% larvae dead) | 1 (1 -25% larvae dead) | 5 (100% larvae dead) | 0 (no larvae dead) | 0 (no larvae dead) | 0 (no larvae dead) | 4 (76-99% larvae dead) | 5 (100% dead) | 5 (100% dead) | 5 (100% dead) | 5 (100% dead) | 5 (100% dead) | 5 (100% dead) | 0 (no dead adults) |  |  |  | SA rating (larvae dead) ([2]; 125 ppm): 0 (no larvae dead); SA rating (larvae dead) ([2]; 250 ppm): 0 (no larvae dead) |
| C=CCSc1nc(C(C)C)nn1C(=O)N(C)C [R=2-propenyl (allyl), R'=isopropyl] | 0 (no larvae dead) | 0 (no larvae dead) | 2 (26-50% larvae dead) | 5 (100% larvae dead) | 5 (100% larvae dead) | 5 (100% larvae dead) | 0 (no larvae dead) | 0 (no larvae dead) | 0 (no larvae dead) | 5 (100% larvae dead) | 5 (100% dead) | 5 (100% dead) | 5 (100% dead) | 5 (100% dead) | 5 (100% dead) | 5 (100% dead) | 0 (no dead adults) | 0 (none dead) | 2 (26-50% dead) | 4 (76-99% dead) | SA rating (larvae dead) ([2]; 125 ppm): 0 (no larvae dead); SA rating (larvae dead) ([2]; 250 ppm): 0 (no larvae dead); SCR Rating (root feeding damage) ([3]; 3 ppm): 3.5; LD50 [4]: 10 to 50 mg/kg |
| C=CCSc1nc(C2CC2)nn1C(=O)N(C)C [R=2-propenyl (allyl), R'=cyclopropyl] | 0 (no larvae dead) | 0 (no larvae dead) | 0 (no larvae dead) | 2 (26-50% larvae dead) | 5 (100% larvae dead) | 5 (100% larvae dead) | 0 (no larvae dead) | 0 (no larvae dead) | 0 (no larvae dead) | 5 (100% larvae dead) | 5 (100% dead) | 5 (100% dead) | 5 (100% dead) | 5 (100% dead) | 5 (100% dead) | 5 (100% dead) | 5 (100% dead adults) | 4 (76-99% dead) | 5 (100% dead) | 5 (100% dead) | SA rating (larvae dead) ([2]; 125 ppm): 0 (no larvae dead); SA rating (larvae dead) ([2]; 250 ppm): 0 (no larvae dead); TSM rating (dead adults) (two-spotted mites (TSM); 15 ppm): 0 (no dead adults); TSM rating (dead adults) (two-spotted mites (TSM); 31 ppm): 0 (no dead adults); TSM rating (dead adults) (two-spotted mites (TSM); 62 ppm): 3 (51-75% dead adults); TSM rating (dead adults) (two-spotted mites (TSM); 125 ppm): 5 (100% dead adults); TSM rating (dead adults) (two-spotted mites (TSM); 250 ppm): 5 (100% dead adults); SCR Rating (root feeding damage) ([3]; 3 ppm): 3.0; SCR Rating (root feeding damage) ([3]; 6 ppm): 2.5; SCR Rating (root feeding damage) ([3]; 12 ppm): 2.5; SCR Rating (root feeding damage) ([3]; 25 ppm): 3.0; SCR Rating (root feeding damage) ([3]; 50 ppm): 3.5; LD50 [4]: 5 to 10 mg/kg |
| CN(C)C(=O)n1nc(C(C)(C)C)nc1SCC(Cl)=C(Cl)Cl [R=2,3,3-trichloro-allyl, R'=tert.butyl] |  |  |  |  |  | 0 (no larvae dead) |  |  |  | 0 (no larvae dead) | 5 (100% dead) | 5 (100% dead) | 5 (100% dead) | 5 (100% dead) | 5 (100% dead) | 4 (76-99% dead) | 0 (no dead adults) | 3 (51-75% dead) | 3 (51-75% dead) | 4 (76-99% dead) |  |
| C=C(Br)CSc1nc(C(C)(C)C)nn1C(=O)N(C)C |  |  |  |  |  | 2 (26-50% larvae dead) |  |  |  | 0 (no larvae dead) | 5 (100% dead) | 5 (100% dead) | 5 (100% dead) | 5 (100% dead) | 5 (100% dead) | 5 (100% dead) | 4 (76-99% dead adults) |  | 4 (76-99% dead) | 4 (76-99% dead) | TSM rating (dead adults) (two-spotted mites (TSM); 15 ppm): 0 (no dead adults); TSM rating (dead adults) (two-spotted mites (TSM); 31 ppm): 0 (no dead adults); TSM rating (dead adults) (two-spotted mites (TSM); 62 ppm): 0 (no dead adults); TSM rating (dead adults) (two-spotted mites (TSM); 125 ppm): 0 (no dead adults); TSM rating (dead adults) (two-spotted mites (TSM); 250 ppm): 0 (no dead adults) |
| C=C(Br)CSc1nc(C2CC2)nn1C(=O)N(C)C |  |  |  |  |  | 2 (26-50% larvae dead) |  |  |  | 0 (no larvae dead) | 4 (76-99% dead) | 5 (100% dead) | 5 (100% dead) | 5 (100% dead) | 5 (100% dead) | 5 (100% dead) | 2 (26-50% dead adults) |  | 0 (none dead) | 2 (26-50% dead) | SCR Rating (root feeding damage) ([3]; 50 ppm): 0.3; SCR Rating (root feeding damage) ([3]; 100 ppm): 4.3 |
| C#CCSc1nc(CCC)nn1C(=O)N(C)C [R=2-propynyl, R'=propyl] | 0 (no larvae dead) | 1 (1 -25% larvae dead) | 3 (51-75% larvae dead) | 5 (100% larvae dead) | 5 (100% larvae dead) | 5 (100% larvae dead) | 0 (no larvae dead) | 0 (no larvae dead) | 0 (no larvae dead) | 5 (100% larvae dead) | 5 (100% dead) | 5 (100% dead) | 5 (100% dead) | 5 (100% dead) | 5 (100% dead) | 5 (100% dead) | 0 (no dead adults) | 0 (none dead) | 0 (none dead) | 1 (1-25% dead) | SA rating (larvae dead) ([2]; 125 ppm): 0 (no larvae dead); SA rating (larvae dead) ([2]; 250 ppm): 0 (no larvae dead); SCR Rating (root feeding damage) ([3]; 25 ppm): 1.3; SCR Rating (root feeding damage) ([3]; 50 ppm): 2.7; SCR Rating (root feeding damage) ([3]; 100 ppm): 3.7 |
| C=C(Cl)CSc1nc(C(C)(C)C)nn1C(=O)N(C)C [R=2-chloroallyl, R'=tert.butyl] |  |  |  |  |  | 2 (26-50% larvae dead) |  |  |  | 0 (no larvae dead) | 5 (100% dead) | 5 (100% dead) | 5 (100% dead) | 5 (100% dead) | 5 (100% dead) | 5 (100% dead) | 0 (no dead adults) | 4 (76-99% dead) | 4 (76-99% dead) | 4 (76-99% dead) |  |
| C=C(C)CSc1nc(C(C)(C)C)nn1C(=O)N(C)C [R=2-methylallyl, R'=tert.butyl] |  |  |  |  |  | 2 (26-50% larvae dead) |  |  |  | 0 (no larvae dead) | 5 (100% dead) | 5 (100% dead) | 5 (100% dead) | 5 (100% dead) | 5 (100% dead) | 5 (100% dead) | 0 (no dead adults) | 1 (1-25% dead) | 4 (76-99% dead) | 4 (76-99% dead) | SCR Rating (root feeding damage) ([3]; 100 ppm): 1.3 |
